Some results are limits rather than exact numbers.

For the first experiment, the target named is T1, Human TRPC6 (Homo sapiens, UniProt Q9Y210).
T1 construct: expressed in transfected cells
T1 sequence (Q9Y210 1-931): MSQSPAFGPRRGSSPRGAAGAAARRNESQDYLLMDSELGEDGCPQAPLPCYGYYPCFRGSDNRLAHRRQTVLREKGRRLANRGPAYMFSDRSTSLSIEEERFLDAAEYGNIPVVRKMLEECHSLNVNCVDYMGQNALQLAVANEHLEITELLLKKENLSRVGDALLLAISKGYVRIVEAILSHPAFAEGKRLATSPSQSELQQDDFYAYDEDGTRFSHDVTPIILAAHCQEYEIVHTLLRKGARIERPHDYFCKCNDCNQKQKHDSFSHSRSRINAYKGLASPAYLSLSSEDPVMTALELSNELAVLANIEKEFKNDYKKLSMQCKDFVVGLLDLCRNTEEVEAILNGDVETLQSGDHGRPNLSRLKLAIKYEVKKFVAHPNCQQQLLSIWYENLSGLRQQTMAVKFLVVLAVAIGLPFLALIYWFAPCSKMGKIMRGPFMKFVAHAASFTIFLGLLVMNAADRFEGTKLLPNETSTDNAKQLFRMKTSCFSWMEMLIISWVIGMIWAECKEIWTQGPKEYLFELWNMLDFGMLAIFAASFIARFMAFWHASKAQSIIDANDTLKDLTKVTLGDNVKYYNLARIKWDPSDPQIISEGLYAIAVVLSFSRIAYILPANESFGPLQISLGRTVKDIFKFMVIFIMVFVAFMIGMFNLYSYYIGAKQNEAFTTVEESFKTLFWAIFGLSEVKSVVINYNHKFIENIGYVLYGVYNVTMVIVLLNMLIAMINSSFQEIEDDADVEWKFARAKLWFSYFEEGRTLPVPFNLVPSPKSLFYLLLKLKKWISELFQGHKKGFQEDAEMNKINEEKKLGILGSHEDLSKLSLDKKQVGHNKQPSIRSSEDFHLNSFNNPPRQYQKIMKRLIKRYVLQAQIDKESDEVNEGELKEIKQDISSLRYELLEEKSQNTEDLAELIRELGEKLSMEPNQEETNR
The experiment is described as follows: Evaluation of TRPC6 channel inhibitory activity (1), FLIPR Calcium 5 Assay Kit, OAG stimulation (Compound Nos. 1-1293). In kind it is cell-based.
Details: not given
The gist of the method: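 Cells stably expressing human TRPC6, plated 24 h before, were loaded 30 min with Calcium 5 dye plus probenecid in HEPES-HBSS. Compound was added 20 min before OAG (30 μM final) and fluorescence tracked on FLIPR. Inhibition normalised to no-compound and no-compound/no-OAG wells; pIC50 from four-parameter fit, reported as +/++/+++ categories.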
Consider `N#Cc1ccc(-c2ncc(CCN)cn2)c(Oc2ccc(N3C4CCC3CC4)nc2)c1` [compound 752, 4-[5-(2-aminoethyl)pyrimidin-2-yl]-3-[6-(7-azabicyclo[2.2.1]heptan-7-yl)pyridin-3-yl]oxybenzonitrile], for which the IC50 was in the range of 10 to 1000 nM.

Still in this experiment, the particulars now being: Human TRPC6 stably-expressing cells, OAG 30 μM, FLIPR Calcium 5 Assay Kit; read-out: Inhibitory activity (pIC50 class) (converted).
As to `Cc1nc(Oc2cc(C#N)ccc2-c2ncc(CCN)cn2)cc(N2CCC[C@H]2C)n1` [compound 859, 4-[5-(2-aminoethyl)pyrimidin-2-yl]-3-[2-methyl-6-[(2R)-2-methylpyrrolidin-1-yl]pyrimidin-4-yl]oxybenzonitrile], the IC50 was less than 10 nM.
The same measure, in the same setting: with `Cn1nc(N2CCCC2)cc1Oc1cc(C#N)ccc1-c1ccc(CC2(N)COC2)cn1` [compound 741, 4-[5-[(3-aminooxetan-3-yl)methyl]pyridin-2-yl]-3-(2-methyl-5-pyrrolidin-1-ylpyrazol-3-yl)oxybenzonitrile] the figure was 10 to 1000 nM; with `Cc1cc(Oc2cc(C#N)ccc2-c2ncc([C@H](O)CN)cn2)cc(N2CCOC(C)(C)C2)n1` [compound 532, 4-[5-[(1S)-2-amino-1-hydroxyethyl]pyrimidin-2-yl]-3-[2-(2,2-dimethylmorpholin-4-yl)-6-methylpyridin-4-yl]oxybenzonitrile], less than 10 nM.
Same read-out and setting: with `Cn1nc(C2CCC2)cc1Oc1cc(C#N)ccc1-c1ncc(CCN)cn1` [Compound 272, 4-[5-(2-aminoethyl)pyrimidin-2-yl]-3-(5-cyclobutyl-2-methylpyrazol-3-yl)oxybenzonitrile] the figure was less than 10 nM; with `Cc1cc(Oc2cc(C#N)ccc2-c2ncc(CCN)cn2)cc(N2CCNC(=O)C2)n1` [compound 455, 4-[5-(2-aminoethyl)pyrimidin-2-yl]-3-[2-methyl-6-(3-oxopiperazin-1-yl)pyridin-4-yl]oxybenzonitrile], greater than 1000 nM; with `Cn1nc(-c2ccccc2O)cc1Oc1cc(C#N)ccc1-c1ccc(C(O)CN)cn1` (centres unmarked) [compound 321, 4-[5-(2-amino-1-hydroxyethyl)pyridin-2-yl]-3-[5-(2-hydroxyphenyl)-2-methylpyrazol-3-yl]oxybenzonitrile], less than 10 nM.
On the same count and under the same terms, with `Cn1nc(N2CCOCC2)cc1C(=O)c1cc(F)ccc1-c1ncc(CCN)cn1` [compound 1107, [2-[5-(2-aminoethyl)pyrimidin-2-yl]-5-fluorophenyl]-(2-methyl-5-morpholin-4-ylpyrazol-3-yl)methanone] the figure was less than 10 nM; with `Cc1nc(Oc2cc(C#N)ccc2-n2cc(C(O)CN(C)C)cn2)cc(N2CCOCC2)n1` (centres unmarked) [Compound 105, 4-[4-[2-(dimethylamino)-1-hydroxyethyl]pyrazol-1-yl]-3-(2-methyl-6-morpholin-4-ylpyrimidin-4-yl)oxybenzonitrile], greater than 1000 nM.
`Cn1nc(C2CC2)cc1Oc1cc(C#N)ccc1-c1nc(C(O)CN)cs1` (centres unmarked) [Compound 216, 4-[4-(2-amino-1-hydroxyethyl)-1,3-thiazol-2-yl]-3-(5-cyclopropyl-2-methylpyrazol-3-yl)oxybenzonitrile]: the IC50 was 10 to 1000 nM.
Take `Cn1nc(-c2ccc(F)cc2)cc1Oc1cc(C#N)ccc1-c1ccc(CCN)nc1` [Compound 184, 4-[6-(2-aminoethyl)pyridin-3-yl]-3-[5-(4-fluorophenyl)-2-methylpyrazol-3-yl]oxybenzonitrile]: the IC50 was 10 to 1000 nM.
Still for that read-out and setting: with `Cc1ncc(N2CCOCC2)cc1Oc1cc(C#N)ccc1-c1ncc(CCN)cn1` [compound 919, 4-[5-(2-aminoethyl)pyrimidin-2-yl]-3-(2-methyl-5-morpholin-4-ylpyridin-3-yl)oxybenzonitrile] the figure was 10 to 1000 nM; with `CC(C)c1cc(Oc2cc(F)ccc2-c2ccc(CCN)cn2)n(C)n1` [compound 1014, 2-[6-[4-fluoro-2-(2-methyl-5-propan-2-ylpyrazol-3-yl)oxyphenyl]pyridin-3-yl]ethanamine], less than 10 nM.
As for `Cn1nc(N2CCCCC2)cc1Cc1cc(C#N)ccc1-c1ncc(CCN)cn1` [compound 1218, 4-[5-(2-aminoethyl)pyrimidin-2-yl]-3-[(2-methyl-5-piperidin-1-ylpyrazol-3-yl)methyl]benzonitrile], the IC50 is less than 10 nM.
For `Cn1nc(C(C)(C)C)cc1C(OCC#N)c1cc(C#N)ccc1-c1ncc(CCN)cn1` (centres unmarked) [Compound No. 1237, 4-[5-(2-Aminoethyl)pyrimidin-2-yl]-3-[(5-tert-butyl-2-methylpyrazol-3-yl)-(cyanomethoxy)methyl]benzonitrile], the IC50 was less than 10 nM.
On the same count and under the same terms, with `N#Cc1ccc(-c2ncc(CCN)cn2)c(C(=O)c2cnn(C3CCOCC3)c2)c1` [compound 1041, 4-[5-(2-aminoethyl)pyrimidin-2-yl]-3-[1-(oxan-4-yl)pyrazole-4-carbonyl]benzonitrile] the figure was 10 to 1000 nM.
The same measure, in the same setting: with `Cc1nc(Oc2cc(C#N)ccc2-c2ncc(CN)cn2)cc(-c2ccc(F)cn2)n1` [compound 474, 4-[5-(aminomethyl)pyrimidin-2-yl]-3-[6-(5-fluoropyridin-2-yl)-2-methylpyrimidin-4-yl]oxybenzonitrile] the figure was greater than 1000 nM.
As to `Cc1nc(Oc2cc(C#N)ccc2-n2cc([C@H](O)CN)cn2)cc(-c2ccccc2C(F)(F)F)n1` [compound 355, 4-[4-[(1S)-2-amino-1-hydroxyethyl]pyrazol-1-yl]-3-[2-methyl-6-[2-(trifluoromethyl)phenyl]pyrimidin-4-yl]oxybenzonitrile], the IC50 is greater than 1000 nM.
The same measure, in the same setting: with `CN(C)c1cc(C(=O)c2cc(C#N)ccc2-c2ncc(CN)cn2)n(C)n1` [compound 1051, 4-[5-(aminomethyl)pyrimidin-2-yl]-3-[5-(dimethylamino)-2-methylpyrazole-3-carbonyl]benzonitrile] the figure was less than 10 nM.
In the case of `Cc1nc(Oc2cc(F)ccc2-c2ncc(CCN)cn2)cc(N2CCOCC2)n1` [compound 965, 2-[2-[4-fluoro-2-(2-methyl-6-morpholin-4-ylpyrimidin-4-yl)oxyphenyl]pyrimidin-5-yl]ethanamine], the IC50 is 10 to 1000 nM.
Still for that read-out and setting: with `Cc1nc(Oc2cc(C#N)ccc2-c2ccc(C3CCNC3)cc2)cc(N2CCOCC2)n1` (centres unmarked) [Compound 53, 3-(2-methyl-6-morpholin-4-ylpyrimidin-4-yl)oxy-4-(4-pyrrolidin-3-ylphenyl)benzonitrile] the figure was 10 to 1000 nM.
`Cc1nc(Oc2cc(C#N)ccc2-n2cc([C@H](O)CN)cn2)cc(-c2ccccc2F)n1` [compound 342, 4-[4-[(1S)-2-amino-1-hydroxyethyl]pyrazol-1-yl]-3-[6-(2-fluorophenyl)-2-methylpyrimidin-4-yl]oxybenzonitrile]: the IC50 is 10 to 1000 nM.
On the same count and under the same terms, with `N#Cc1ccc(-c2ccc(CCN)cn2)c(C(=O)c2nnc(N3CCOCC3)s2)c1` [compound 1094, 4-[5-(2-aminoethyl)pyridin-2-yl]-3-(5-morpholin-4-yl-1,3,4-thiadiazole-2-carbonyl)benzonitrile] the figure was 10 to 1000 nM.
On the same count and under the same terms, with `Cc1cc(Oc2cc(C#N)ccc2-c2ncc(OCCN)cn2)cc(N2CCOCC2)n1` [compound 387, 4-[5-(2-aminoethoxy)pyrimidin-2-yl]-3-(2-methyl-6-morpholin-4-ylpyridin-4-yl)oxybenzonitrile] the figure was 10 to 1000 nM.
On the same count and under the same terms, with `Cn1nc(C2CC2)c(F)c1Oc1cc(C#N)ccc1-c1ncc(CCN)cn1` [compound 359, 4-[5-(2-aminoethyl)pyrimidin-2-yl]-3-(5-cyclopropyl-4-fluoro-2-methylpyrazol-3-yl)oxybenzonitrile] the figure was 10 to 1000 nM; with `N#Cc1ccc(-c2ccc(CCN)nc2)c(Oc2cnnc(N3CCCCC3)c2)c1` [Compound 78, 4-[6-(2-aminoethyl)pyridin-3-yl]-3-(6-piperidin-1-ylpyridazin-4-yl)oxybenzonitrile], 10 to 1000 nM; with `Cc1cc(N2CCOCC2)cc(Oc2cc(C#N)ccc2-c2ccc(CCN)cc2)n1` [Compound 128, 4-[4-(2-aminoethyl)phenyl]-3-(6-methyl-4-morpholin-4-ylpyridin-2-yl)oxybenzonitrile], greater than 1000 nM.
Turning to `Cc1nc(Oc2cc(C#N)ccc2-c2ccc(CN)cn2)cc(N2CCCC2)n1` [compound 657, 4-[5-(aminomethyl)pyridin-2-yl]-3-(2-methyl-6-pyrrolidin-1-ylpyrimidin-4-yl)oxybenzonitrile], the IC50 is less than 10 nM.
As for `Cc1nc(OCC(C)C)cc(Oc2cc(C#N)ccc2-c2ncc(CCN)cn2)n1` [compound 849, 4-[5-(2-aminoethyl)pyrimidin-2-yl]-3-[2-methyl-6-(2-methylpropoxy)pyrimidin-4-yl]oxybenzonitrile], the IC50 is less than 10 nM.

The values above are taken from patent US20230167073A1 (Teijin Pharma Limited, priority 2020, published 2023).
